This assay deals with Opioid receptor (Rattus norvegicus, UniProt P33533+P34975+P33535). Nature of the assay: Binding affinity towards opioid receptor. It counts as protein assay.

Each structure is given as a SMILES string.

The term IC50 denotes the concentration that gives 50% inhibition. High values mean weaker potency in that assay, low ones greater potency in that assay. In turn, `CN1CC2Oc3cc(O)ccc3[C@@]23CCCC1C3` (stereo partly drawn) displayed an IC50 of 1000 nM.

The molecule `CN1CC[C@@]23CC1CC[C@@H]2Oc1c(O)cccc13` yielded a half-inhibitory concentration (IC50) of 1766 nM. The value for `CN1CC[C@]23CCCC1[C@H]2Oc1c(O)cccc13` was 96 nM.
